Measured values reported in ChEMBL document CHEMBL4411260, “Dual Inhibition of TYK2 and JAK1 for the Treatment of Autoimmune Diseases: Discovery of (( S)-2,2-Difluorocyclopropyl)((1 R,5 S)-3-(2-((1-methyl-1 H-pyrazol-4-yl)amino)pyrimidin-4-yl)-3,8-diazabicyclo[3.2.1]octan-8-yl)methanone (PF-06700841)” (J Med Chem, 2018).

Tests used:
Format in all cases: ADME, organism-based
[1] = Cmax in complete freund's adjuvant-induced Lewis rat arthritis model plasma at 3 mg/kg, po qd administered via gavage treated for 7 consecutive days measured after 30 mins post last dose; set-up: dose 3 mg/kg, route oral; details: in vivo, 0.5 h
[2] = Volume of distribution at steady state in Sprague-Dawley rat at 1 mg/kg, iv or 3 mg/kg, po; details: in vivo, read-out: Vdss
[3] = Cmax in Sprague-Dawley rat at 3 mg/kg, po; set-up: dose 3 mg/kg, route oral; details: in vivo
[4] = Plasma clearance in Sprague-Dawley rat at 1 mg/kg, iv or 3 mg/kg, po
[5] = Cmax in complete freund's adjuvant-induced Lewis rat arthritis model plasma at 30 mg/kg, po qd administered via gavage treated for 7 consecutive days measured after 30 mins post last dose; set-up: dose 30 mg/kg, route oral
[6] = Cmax in complete freund's adjuvant-induced Lewis rat arthritis model plasma at 10 mg/kg, po qd administered via gavage treated for 7 consecutive days measured after 30 mins post last dose; set-up: dose 10 mg/kg, route oral
[7] = AUC (0 to infinity) in Sprague-Dawley rat at 3 mg/kg, po; set-up: dose 3 mg/kg, time infinity, route oral; details: in vivo
[8] = Oral bioavailability in Sprague-Dawley rat at 3 mg/kg; details: in vivo
[9] = Cmin in complete freund's adjuvant-induced Lewis rat arthritis model plasma at 3 mg/kg, po qd administered via gavage treated for 7 consecutive days measured after 24 hrs post last dose; details: read-out: Cmin
[10] = Cmin in complete freund's adjuvant-induced Lewis rat arthritis model plasma at 10 mg/kg, po qd administered via gavage treated for 7 consecutive days measured after 24 hrs post last dose; details: read-out: Cmin
[11] = Cmin in complete freund's adjuvant-induced Lewis rat arthritis model plasma at 30 mg/kg, po qd administered via gavage treated for 7 consecutive days measured after 24 hrs post last dose; details: read-out: Cmin

**Q.** For `Cc1ccc(S(=O)(=O)O)cc1.Cn1cc(Nc2nccc(N3CC4CC[C@H](C3)N4C(=O)[C@@H]3CC3(F)F)n2)cn1` (single isomer, unassigned), which Cmax [1] is on record?
**A.** 3540 nM

**Q.** What about the Vd [2] of the same compound?
**A.** 2 L/kg

**Q.** And the Cmax [3]?
**A.** 774 ng/mL

**Q.** What about the clearance [4] of the same compound?
**A.** 31 mL/min/kg

**Q.** And the Cmax [5]?
**A.** 23900 nM

**Q.** And the Cmax [6]?
**A.** 11000 nM

**Q.** And the AUC(0-inf) [7]?
**A.** 1340 ng·h/mL

**Q.** And the bioavailability [8]?
**A.** 83%

**Q.** And the concentration at 24 h [9]?
**A.** 22.1 nM

**Q.** And the concentration at 24 h [10]?
**A.** 60 nM

**Q.** What about the concentration at 24 h [11] of the same compound?
**A.** 60 nM
